Measured values: patent US4806532A, “Inhibition of epithelial phosphate transport” (Mayo Foundation for Medical Education and Research, priority 1985, dated 1989)
Several values for one entry are separate records, joined by “and”; a condition that tells them apart may be missing. Identical values can stand only once. Counter-ions that a name gives are not always drawn.

What was measured:
Na-Pi cotransporter = biological target: T1, Na-Pi cotransporter (Rattus norvegicus, UniProt Q06496); assay: Reversibility of TPFA inhibition: 32Pi uptake of BBMV after preincubation and washout; assay type: biochemical
T1 construct: from tissue; host or cells: rat renal cortex, brush border membrane vesicles
T1 sequence (Q06496 1-637): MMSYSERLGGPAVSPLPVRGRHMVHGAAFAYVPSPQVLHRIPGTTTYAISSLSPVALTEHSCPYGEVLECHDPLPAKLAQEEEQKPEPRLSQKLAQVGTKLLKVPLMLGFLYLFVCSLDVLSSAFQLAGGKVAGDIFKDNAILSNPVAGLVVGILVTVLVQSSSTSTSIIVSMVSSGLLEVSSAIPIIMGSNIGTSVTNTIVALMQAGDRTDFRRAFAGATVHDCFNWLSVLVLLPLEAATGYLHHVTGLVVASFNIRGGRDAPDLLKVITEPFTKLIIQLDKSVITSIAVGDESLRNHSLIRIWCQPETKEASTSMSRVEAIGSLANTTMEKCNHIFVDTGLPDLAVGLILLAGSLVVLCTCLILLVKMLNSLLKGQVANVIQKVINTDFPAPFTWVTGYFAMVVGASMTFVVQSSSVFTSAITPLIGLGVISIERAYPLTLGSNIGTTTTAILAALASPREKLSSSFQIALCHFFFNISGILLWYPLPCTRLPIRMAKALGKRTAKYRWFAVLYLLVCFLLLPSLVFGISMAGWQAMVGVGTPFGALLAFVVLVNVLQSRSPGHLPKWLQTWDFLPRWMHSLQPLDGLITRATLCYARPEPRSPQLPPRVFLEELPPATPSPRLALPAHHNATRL
Method: The reversibility of the inhibition of ^32 Pi transport across BBMV by TPFA was explored using the following protocol. […] The suspensions of BBMV were incubated for 10 min at room temperature. At the end of incubation period, incubation mixtures were diluted with 10 ml of ice-cold MTH-medium, resuspended and centrifuged at 35,000×g for 20 min. The supernatant was discarded and BBMV pellet was suspended in MTH-medium and then assayed for Na^+ -gradient-dependent ^32 Pi uptake.

[1] = test system: L-[^3 H]-proline uptake by BBMV; assay: Na+-gradient-dependent uptake of L-[3H]-proline by renal BBMV; assay type: biochemical, rat; conditions: 1 mM TPFA; mean ± SEM, n=4; control 43±3
Method: The brush border membrane vesicles (BBMV) were prepared from renal cortical tissue of adult male Sprague-Dawley rats of an average body weight of about 220 grams. Rats were fed ad libitum standard rat chow containing 0.7% Pi and had free access to distilled water. Rats were sacrificed under anesthesia and dissected renal cortical tissue was used for preparation of BBMV fraction by the divalent cation-precipitation procedure, employed and described in detail in J. Clin. Invest., 67, 1347 (1981) and J. Biol. Chem., 258, 5695 (1983), with the following modifications: (a) MgCl2 instead of CaCl2 was added to crude homogenate (final concentration 10 mM MgCl2) to precipitate membranes other than BBMV; (b) in the final step, BBMV were washed and equilibrated in a medium of pH=7.5, instead of pH=8.5. The enrichment and specific activities of typical BBM enzymes alkaline phosphatase (APases), γ-glutyamyl transferase (γ-GTT), leucineaminopeptidase (LAP) and maltase with use of these modifications were similar as in BBMV fractions prepared in our previous studies. […]
The BBMV uptake of ^32 Pi, D-[^3 H]-glucose, L-[^3 H]-proline and ^22 Na^+ was measured by means of a rapid filtration technique, as described in J. Clin. Invest., 67, 1347 (1981) and Am. […]

[2] = test system: thyroparathyroidectomized (TPTX) rats; assay: Urinary excretion of Pi and other electrolytes after TPFA in vivo; parameters: species or system rat; Phosphate excretion: unit not given here
Method: Surgically thyroparathyroidectomized (TPTX) rats of 180-220 g body wt (Johnson Laboratories, Chicago, IL) were placed in metabolic cages and were fed 15 g of the low phosphate (P =0.07%) diet (ICN, Cleveland, OH) and 25 ml distilled water per day prior to and throughout the study (J. Clin. Invest. 67, 1347 (1981)). The animals were weighed daily. Urine samples (24-hour period) were collected each day for determination of urine volue, creatinine, Pi, Ca^++, Na^+ and K^+. After stabilization of rats on the low phosphate diet for 4 days, the "experimental" group of rats were injected with TPFA (500 mg/kg b wt) intraperitoneally, divided in two daily doses, while the "control" rats received the vehicle only. TPFA for i.p. injection was dissolved in distilled water and the control animals were injected with the same volume of NaCl solution containing the equimolar amount of Na^+. When appropriate, the results were evaluated statistically using student's t-test for either group or paired comparisons. Values of P >0.05 were considered nonsignificant (NS).

(Na-K)ATPase = biological target: T2, (Na-K)ATPase (Rattus norvegicus, UniProt P06685); assay: Effect on BaLM enzyme (Na-K)ATPase (data not shown); assay type: biochemical
T2 construct: from tissue; host or cells: basolateral membrane, kidney (tissue and rat inferred)

[3] = in vivo; cited from earlier work
[4] = Day 1 (baseline), experimental group, TPTX rats
[5] = Day 2, TPFA 500 mg/kg per day i.p. on day 2 and day 3, TPTX rats
[6] = Day 3, TPFA 500 mg/kg per day i.p. on day 2 and day 3, TPTX rats
[7] = Day 4, after TPFA 500 mg/kg per day i.p. on day 2 and day 3, TPTX rats

Question: For `O=C(O)P(=O)(O)O` [TPFA, Phosphonoformic acid, trisodium salt hexahydrate], which “32Pi uptake 120 min, TPFA-preincubated” value (Na-Pi cotransporter; BBMV preincubated with 5 mM TPFA 10 min, diluted 1:10, washed, Experiments 1 and 2) is on record?
Answer: The value was 326 ± 5 pmoles/mg protein and 293 ± 3 pmoles/mg protein.

Question: And the “32Pi uptake 20 sec, TPFA-preincubated” value (Na-Pi cotransporter; BBMV preincubated with 5 mM TPFA 10 min, diluted 1:10, washed, Experiments 1 and 2, mean ± SEM)?
Answer: Its value is 1240 ± 25 pmoles/mg protein and 1128 ± 38 pmoles/mg protein.

Question: And the “rate of Na+-gradient-dependent BBMV uptake of Pi after washout of TPFA by dilution” value (Na-Pi cotransporter; versus control BBMV not exposed to TPFA)?
Answer: Its value is “indistinguishable from control BBMV”.

Question: What about the “equilibrium uptake of L-[3H]-proline at 120 minutes” value [1] of the same molecule?
Answer: Its value is 43+1 pmoles/mg protein.

Question: What about the Calcium excretion [2, 4] of the same molecule?
Answer: Its Calcium excretion is 0.3 ± 0.07 mmoles/mg creatinine.

Question: And the Potassium excretion [2, 4]?
Answer: The Potassium excretion was 7.3 ± 1.0 mmoles/mg creatinine.

Question: What about the Sodium excretion [2, 4] of the same molecule?
Answer: The Sodium excretion was 6.8 ± 1.1 mmoles/mg creatinine.

Question: And the Phosphate excretion ([2]; Day 1 (baseline, before injections on day 2 and 3), experimental group, TPTX rats on low phosphate diet, relative to creatinine, mean ± SEM of 8-9 rats)?
Answer: Its Phosphate excretion is 11.8 ± 6.0.

Question: And the Phosphate excretion ([2]; Day 2, TPFA 500 mg/kg per day i.p. in two doses on day 2 and day 3, TPTX rats, low phosphate diet, relative to creatinine)?
Answer: The Phosphate excretion was 30.8 ± 6.6.

Question: And the Calcium excretion [2, 5]?
Answer: The Calcium excretion was 0.2 ± 0.09 mmoles/mg creatinine.

Question: And the Potassium excretion [2, 5]?
Answer: Its Potassium excretion is 7.6 ± 1.1 mmoles/mg creatinine.

Question: And the Sodium excretion [2, 5]?
Answer: Its Sodium excretion is 8.0 ± 1.1 mmoles/mg creatinine.

Question: And the Phosphate excretion ([2]; Day 3, TPFA 500 mg/kg per day i.p. in two doses on day 2 and day 3, TPTX rats, significantly increased vs Day 1 (P < 0.025))?
Answer: Its Phosphate excretion is 122.1 ± 37.8.

Question: And the Calcium excretion [2, 6]?
Answer: Its Calcium excretion is 0.3 ± 0.2 mmoles/mg creatinine.

Question: What about the Potassium excretion [2, 6] of the same molecule?
Answer: The Potassium excretion was 11.8 ± 3.9 mmoles/mg creatinine.

Question: What about the Sodium excretion [2, 6] of the same molecule?
Answer: The Sodium excretion was 19.4 ± 11.6 mmoles/mg creatinine.

Question: And the Calcium excretion [2, 7]?
Answer: Its Calcium excretion is 0.6 ± 0.5 mmoles/mg creatinine.

Question: And the Phosphate excretion [2, 7]?
Answer: The Phosphate excretion was 79.8 ± 46.9.

Question: And the Potassium excretion [2, 7]?
Answer: The Potassium excretion was 12.9 ± 5.3 mmoles/mg creatinine.

Question: And the Sodium excretion [2, 7]?
Answer: The Sodium excretion was 15.1 ± 7.0 mmoles/mg creatinine.

Question: And the “urinary excretion of Pi (in words)” value ([2]; TPFA i.p. in two daily doses, TPTX rats on low phosphate diet, FIG. 3)?
Answer: The value was “severalfold increase”.

Question: What about the “urinary excretion of Na+, K+ or calcium (in words)” value ([2]; TPFA i.p. in two daily doses, TPTX rats, same urine samples) of the same molecule?
Answer: Its value is “did not change”.

Question: What about the “effect on BaLM enzyme (Na-K)ATPase” value ((Na-K)ATPase) of the same molecule?
Answer: The value was “without inhibitory effect”.

Question: What about the “toxic effects on bone in general toxicity studies” value [3] of the same molecule?
Answer: The value was “not toxic effects on bone”.
